Assays:
[1] = test system: wild type and APP/PS1-21 mice; conditions: cited from earlier work
3xTg mouse model = conditions: prolonged JQ1 treatment; cited from earlier work
primary cortical neurons [2] = assay: Neuronal longevity in primary cortical neuron culture (LDH, propidium iodide, cleaved caspase 3); assay type: cell-based, mouse; conditions: PLX5622 together with IBET858
From the text: Primary Cortical Neuron Culture. Embryonic day 18 (E18) timed-pregnant female mice were anesthetized with CO2 and sacrificed by cervical dislocation. In a dissection hood, 24-26 embryos per experiment were collected through an incision of the mother's abdomen, taken out of the amniotic sacs and decapitated in ice cold Hank's Balanced Salt Solution (HBSS). Using fine scissors and forceps, brains were rapidly dissected and the cortex cleared from meninges and isolated under a dissection microscope. Cortices were collected in ice cold HBSS and kept on ice until all embryos had been dissected. In a tissue culture hood, HBSS was removed and the cortex tissue digested by 0.25% Trypsin-EDTA for 12 minutes at 37° C., followed by DNase1 treatment for 10 minutes at 37° C. The tissue was dissociated by serial trituration with a 25 ml serological pipette, followed by trituration with 10 ml and 5 ml serological pipettes. Cell suspension was washed once with DMEM medium, supplemented with 10% FBS and 1% penicillin/streptomycin and passed through a […] cell strainer before counted on a hemocytometer. Single cells were seeded on poly-D-lysine (0.1 mg ml-1) coated wells at a density of 1×10^6 cells per well on a 12-well plate. Cells were grown in Neurobasal medium, complemented with B27 supplement, N2 supplement, and 0.5 mM L-glutamine and maintained at 37° C. in 5% CO2 for 1 week. Cultures were treated with DMSO (0.2%), I-BET858 (1 μM, 0.2% DMSO), BDNF (50 ng/ml), or BDNF+I-BET858 for 2 and 12 h on day 7 in vitro. Cultures were washed with phosphate-buffered saline (PBS) on ice and processed for RNA isolation using TRIzol/Chloroform extraction.
LDH Assay. LDH activity was measured using the Pierce LDH Cytotoxicity Assay Kit. Culture media was incubated with an equal volume of LDH master mix and incubated for 30 minutes at room temperature in the dark. After, the same volume of stop reagent was added and the absorbance was measured at 490 and 680 nm. Maximum LDH measurements were obtained by adding lysis buffer to release the total amount of LDH in the sample. LDH release is calculated as a percent of the maximum.
Propidium Iodide Assay. Propidium iodide (1 mg/ml, Life Technologies #P3566) was added to each culture well at a final concentration of 0.5 μg/ml. Cultures were incubated for 30 minutes at 37 degrees then washed with PBS. Cells were then fixed with 4% paraformaldehyde in PBS for 15 minutes at room temperature. After fixation, cells were washed with PBS and then mounted using mounting media containing DAPI.
In order to understand the effect of chronic BET inhibition on neuronal survival, primary cortical mouse neurons were cultured in the presence or absence of the brain permeable BET inhibitor IBET858 (1 μM). To quantify cell death over time, the levels of lactate dehydrogenase (LDH) were measured in culture media which is presumably released during cell death as the membranes become permeable. […] The observed decrease in LDH activity after BET inhibition occurs in a dose-dependent manner. LDH activity, which is an indirect measure of cell death, may be affected by other factors such as changes in metabolism or expression of the LDH genes. Therefore in order to confirm these findings, propidium iodide (PI) staining was used to directly quantify the number of dead neurons over time. This membrane impermeable dye increases in fluorescence 20-30 fold after intercalating DNA265. […] To give context to the magnitude of this effect on survival, this experiment was repeated with a direct comparison to the mTOR inhibitor, rapamycin (20 nM).

microglia = assay: Microglia depletion by PLX in wild type mice; conditions: mouse, in vivo
From the text: These models both have strong inflammatory components to their pathology; however it is important to understand the mechanism by which IBET858 improves symptoms. If the pathology is driven by microglial-mediated inflammation, it was hypothesized that depleting microglia from the brain should prevent neuronal degeneration and memory deficits as well. Therefore a pharmacological approach was used to deplete microglia in vivo by inhibiting the colony stimulating factor receptor 1 (CSF1R) which is required for microglial survival and kills 99% of microglia in one week in wild type mice. Elmore et al., “Colony-Stimulating Factor 1 Receptor Signaling is Necessary for Microglia Viability, Unmasking a Microglia Progenitor Cell in the Adult Brain,” Neuron 82:380-397 (2014), which is hereby incorporated by reference in its entirety.
First, the PLX5622-mediated mediated reduction in microglia numbers is not sufficient to reduce inflammatory gene expression to the level that not only allows neuronal survival but also normal function. Second, while IBET858 clearly dampens microglia-mediated inflammation, its neuroprotective effect cannot be solely attributed to microglia and may in fact be a combinatorial effect on other cell types in the brain.

CK-p25 mice = assay: p25 (CK-p25) mouse model of Alzheimer's disease; assay type: in vivo
BET proteins = conditions: cited from earlier work
primary cortical neurons [3] = assay: Polar metabolite mass spectrometry in primary cortical neurons; assay type: cell-based, mouse; conditions: acute exposure 24 h, 50 nM
Experimental: Mass Spectrometry. Cell culture plates (2e6 cells per well n=7-8 per group) were washed with 75 mM Ammonium bicarbonate, pH 7.4, warmed to 37 degrees. Plates were quenched on liquid nitrogen for 10 seconds and then placed on dry ice. 1 ml of 70% Ethanol in MS-grade water was warmed to 75 degrees and added to each well. Plates were incubated in a 75 degree water bath for 3 minutes, shaking gently every minute. After 3 minutes, plates were placed on dry ice and once cooled, supernatants were lyophilized using the speed vacuum and stored at −80 degrees. Samples were shipped on dry ice to Cellzome who processed the samples for mass spectrometry and performed the initial analysis annotating metabolites. A semi-quantitative approach was used which determines the metabolite levels relative to a control rather than absolute concentrations. All detected ions were used for statistical analysis regardless of how many samples they were detected. This allows for the identification of low-abundant metabolites that may be present in only a subset of samples.
If IBET858 is indeed decreasing metabolism as indicated, comprehensive metabolic changes after BET inhibition should be observed. Therefore, an unbiased analysis of polar metabolites via mass spectrometry was employed (FIGS. 12A-12C). Accordingly, the levels of 100-150 unique metabolites are changed by chronic BET inhibition in primary cortical neurons.

Cc1sc2c(c1C)C(c1ccc(Cl)cc1)=N[C@@H](CC(=O)OC(C)(C)C)c1nnc(C)n1-2 [JQ1]
cognitive deficits in APP/PS1-21 mouse model ([1]; APP/PS1-21): rescued cognitive deficits
memory, fear conditioning paradigm in wild type mice ([1]; wild type mice): enhanced memory
level of phosphorylated tau (3xTg mouse model): decreased
memory and learning deficits (3xTg mouse model): did not have any effect

COc1ncc(F)cc1CNc1ccc(Cc2c[nH]c3ncc(C)cc23)c(F)n1 [PLX5622]
neuronal longevity after IBET858 on pharmacological depletion of microglia (primary cortical neurons [2]): did not alter longevity
microglia after PLX in wild type mice (microglia): fully depleted
number of microglia compared to wild-type controls (CK-p25 mice; CK-p25 mice treated with PLX): twice the number of microglia
contextual recall (memory deficits) (CK-p25 mice; PLX5622): made contextual recall worse
neuronal and synapse loss (CK-p25 mice; PLX5622): prevented neuronal and synapse loss

Oc1ccc(C=Cc2cc(O)cc(O)c2)cc1 [Resveratrol, resveratrol]
inhibition of BET proteins (BET proteins): weakly inhibit

C=C(C)[C@H]1Cc2c(ccc3c2O[C@@H]2COc4cc(OC)c(OC)cc4[C@@H]2C3=O)O1 [Rotenone, reference compound]
metabolites changed (primary cortical neurons [3]): 300-500 metabolites

Reference: patent publication US12691124B2, “Methods of controlling and improving brain health” (ICAHN SCHOOL OF MEDICINE AT MOUNT SINAI, priority 2019, dated 2026)
